Counter-ions that a name gives are not always drawn.
tested on: MTT (mouse pheochromocytoma); test: IC50 of cell viability (ATP content); settings: (24 or 48 h)
Method in brief: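 MTT mouse pheochromocytoma cells (5 µl of 200,000 cells/ml per well, white 1536-well plates, DMEM with 5% FBS and 1% horse serum) were cultured overnight at 37°C, 5% CO2. They then received 23 nl library compound in DMSO by pintool at 8 concentrations (final 0.5 nM to 46 µM) for 24 or 48 hrs. CellTiter-Glo ATP luminescence was read after 15 minutes. Signals were normalised to positive-control (100% inhibition) and DMSO (0%) wells, and IC50 came from a four-parameter logistic fit.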

| IC50 of cell viability [µM] | Compound |
| --- | --- |
| > 46 | CC1=C(C(=O)O)N2C(=O)[C@@H](NC(=O)[C@H](N)c3ccccc3)[C@H]2SC1 [Cefalexina] |
| > 46 | CC1=C(CC(=O)O)c2cc(F)ccc2/C1=C\c1ccc([S+](C)[O-])cc1 (stereo unspecified) [Sulindac] |
| > 46 | CC1=C(CC(=O)O)c2cc(F)ccc2/C1=C\c1ccc([S+](C)(=O)[O-])cc1 [Sulindac sulfone] |
| > 46 | O=C(c1ccccc1)C(O)c1ccccc1 (stereo unspecified) [Benzoin] |
| > 46 | O=C(O)Cc1ccc(-c2ccccc2)cc1 [Felbinac] |
| > 46 | CC(=O)c1ccc(OCC(=O)N2CCCCC2)cc1 [Ethanone, 2-(4-acetylphenoxy)-1-(1-piperidinyl)-] |
| > 46 | CC(=O)Nc1ccc(OCCOCCOc2ccc(NC(C)=O)cc2)cc1 [Diamfenetida] |
| > 46 | CNCCCCOc1ccccc1Cc1ccccc1 [Bifemelane] |
| > 46 | c1ccc2sc(SN3CCOCC3)nc2c1 [MORPHOLINYLMERCAPTOBENZOTHIAZOLE] |
| > 46 | O=C([O-])c1ccccc1-c1c2cc(Br)c(=O)c(Br)c-2oc2c(Br)c([O-])c(Br)cc12 [EOSINE YELLOWISH] |
| > 46 | CC(C)Cc1ccc(C(C)C(=O)O)cc1 (stereo unspecified) [Ibuprofen] |
| > 46 | Cc1nc(Nc2ncc(C(=O)Nc3c(C)cccc3Cl)s2)cc(N2CCN(CCO)CC2)n1 [DASATINIB] |
| > 46 | CCN(CC)CCOc1ccccc1C(=O)CCc1ccccc1 [ETAFENONE HYDROCHLORIDE] |
| > 46 | CC/C(=C(/CC)c1ccc(OP(=O)(O)O)cc1)c1ccc(OP(=O)(O)O)cc1 [DIETHYLSTILBESTROL DIPHOSPHATE] |
| > 46 | CCN(CC)C(=O)c1cccnc1 [Nikethamide] |
| > 46 | Cc1ccc(/C=C2/C(=O)C3(C)CCC2C3(C)C)cc1 (stereo unspecified) [ENZACAMENE] |
| > 46 | Nc1ccc(C(=O)NCC(=O)O)cc1 [Aminohippuric acid] |

More lines, now with the values behind:

| Compound | IC50 of cell viability [µM] |
| --- | --- |
| O=C(O)CC(O)(CC(=O)O)C(=O)O [Citric acid] | > 46 |
| CC(S)C(=O)NCC(=O)O (stereo unspecified) [TIOPRONIN] | > 46 |
| O=S(=O)([O-])C(F)(F)C(F)(F)C(F)(F)C(F)(F)F [Potassium nonafluoro-1-butanesulfonate] | > 46 |
| CCOC(=O)O[C@@]1(CC[C@@H]2[C@@H]3CC\C4=C\C(=O)\C=C/[C@@]4(C)[C@H]3[C@H](O)C[C@@]12C)C(=O)COC(=O)CC [Prednicarbate] | > 46 |
| CNC(=N)NCCC[C@H](N)C(=O)O [L-NMMA] | > 46 |
| CC(=O)N[C@@H](C=O)[C@@H](O)[C@H](O)[C@H](O)CO [N-Acetylgalactosamine] | > 46 |
| CCOC(=O)N1\C=C/N(C)C1=S [Carbimazole] | > 46 |
| COC(C)=O [Methyl acetate] | > 46 |
| N=C(Nc1ccccc1)Nc1ccccc1 [1,3-Diphenylguanidine] | > 46 |
| C[C@@H]1COC2=C3N1\C=C(\C(O)=O)C(=O)C3=CC(=C2N4CCN(C)CC4)F [Ofloxacin] | > 46 |
| CCN(CC)Cc1nccn1-c1ccc([N+](=O)[O-])cc1C(=O)c1ccccc1Cl [Nizofenone] | > 46 |
| COc1ccc([C@@H]2CC(=O)c3c(O)cc(O[C@@H]4O[C@@H](CO[C@@H]5O[C@@H](C)[C@@H](O)[C@@H](O)[C@H]5O)[C@@H](O)[C@@H](O)[C@H]4O)cc3O2)cc1O [Hesperidin] | > 46 |
| CCC(=O)c1c(O)cc(O)cc1O [FLOPROPIONE] | > 46 |
| CC(C)CC1C(=O)N2CCCC2C2(O)OC(NC(=O)C3CC4c5cccc6[nH]cc(c56)CC4N(C)C3)(C(C)C)C(=O)N12 (stereo unspecified) [Dihydroergocriptine] | > 46 |
| O=C[C@H](O)[C@@H](O)[C@H](O)[C@H](O)CO [D-Glucose] | > 46 |
| CC1O[C@@H](CC(O)[C@H]1O[C@H]2CC(O)[C@@H](O[C@H]3CC(OC(C)=O)[C@H](O[C@H]4OC(CO)C(O)C(O)C4O)[C@@H](C)O3)C(C)O2)OC5CC[C@]6(C)C(CCC7C6CC(O)[C@@]8(C)C(CC[C@@]78O)\C9=C\C(=O)OC9)C5 (stereo partly specified) [LANATOSIDE C] | > 46 |
| CC(C)C[C@@H](N)C(=O)O [D-LEUCINE] | > 46 |
| CN(C)CCO [Deanol] | > 46 |
| NCC[C@H](O)C(=O)N[C@@H]1C[C@H](N)[C@@H](O[C@H]2O[C@H](CN)CC[C@H]2N)[C@H](O)[C@H]1O[C@H]1O[C@H](CO)[C@@H](O)[C@H](N)[C@H]1O [ARBEKACIN SULFATE] | > 46 |
